Values after ≈ are worked out from the molar mass of the structure shown. Where two headings read alike, the source gives them in different places.
Key:
Type in all cases: cell-based
MSSA T972018 [1] = test: Disk diffusion assay (zone of inhibition); settings: Staphylococcus aureus, read-out: Zone diameter (mm ± SD)
Text: (§1) The study was designed to identify conditions that improve oritavancin diffusion in agar and consequently yield a zone diameter ≧15 mm for the CLSI quality control strain MSSA ATCC 25923. Excipients that increased the disk diffusion of oritavancin in agar relative to disks containing only oritavancin were identified and selected for further study. […] A prediffusion step at room temperature was introduced to maximize oritavancin diffusion prior to initiation of bacterial growth. In this step, the antimicrobial disks were placed on agar plates seeded with a bacterial isolate and incubated at room temperature for 3 hours. Plates were then incubated overnight at 37° C. Zone diameters around the disks in which bacterial growth was inhibited were measured with a ruler and reported in millimeters.
(§2) Ethanol-sterilized Whatman paper disks (6 mm diameter) were allowed to dry then impregnated with 20 microliters of oritavancin solution containing total amounts ranging from 90 to 360 micrograms. Disks were allowed to dry at room temperature for various times prior to use.
(§3) Bacterial suspensions were prepared and adjusted to an optical density of 0.1 at 600 nm. Standard cation-adjusted Mueller Hinton agar plates (90 mm diameter) were seeded with bacterial suspensions by initially swabbing the center of plate then moving outward towards the edge. The plate was swabbed a second time, perpendicular to the orientation of the first swab. To assess the impact of prediffusion on diameter of inhibition zones, two disks were immediately placed on one half of the plate and the plate was incubated for 3 hours at room temperature. After 3 hours, two additional disks were placed on the other half of the plate then the plate was incubated overnight at 37° C. Zone diameters were measured with a ruler and reported in millimeters.

MRSA NRS121-ORI^RS [2] = test: Disk diffusion assay (zone of inhibition); settings: Staphylococcus aureus, read-out: Zone diameter (mm ± SD)
Text: as §1, §2, §3

MSSA U148267 = test: Broth microdilution (BMD) MIC; settings: Staphylococcus aureus, read-out: Oritavancin BMD MIC
Text: (§4) To date, only the broth microdilution (BMD) minimal inhibitory concentration (MIC) test is a reference method accepted by the Clinical Laboratory Standards Institute (CLSI) for use in determining the susceptibility of a bacterial isolate to oritavancin (Methods for Dilution Antimicrobial Susceptibility Tests for Bacteria That Grow Aerobically; Approved Standard, CLSI document M7-A8, 8th ed. Clinical and Laboratory Standards Institute, Wayne, Pa. 2009; Performance Standards for Antimicrobial Susceptibility Testing; Eighteenth Informational Supplement, CLSI document M100-S18, 7th ed. Clinical and Laboratory Standards Institute, Wayne, Pa. 2008).

MRSA NRS123-ORI^RS = test: Broth microdilution (BMD) MIC; settings: Staphylococcus aureus; MRSA NRS123-ORI^RS (oritavancin reduced-susceptibility isolate)
Text: as §4

MRSA Q141067 = test: Broth microdilution (BMD) MIC; settings: Staphylococcus aureus, read-out: Oritavancin BMD MIC
Text: as §4

MSSA Q141066 = test: Broth microdilution (BMD) MIC; settings: Staphylococcus aureus, read-out: Oritavancin BMD MIC
Text: as §4

hVISA NRS2 = test: Broth microdilution (BMD) MIC; settings: Staphylococcus aureus, read-out: Oritavancin BMD MIC
Text: as §4

MRSA ATCC 33591 = test: Broth microdilution (BMD) MIC; settings: Staphylococcus aureus, read-out: Oritavancin BMD MIC
Text: as §4

MRSA V406957 = test: Broth microdilution (BMD) MIC; settings: Staphylococcus aureus, read-out: Oritavancin BMD MIC
Text: as §4

MSSA ATCC 29213 = test: Broth microdilution (BMD) MIC; settings: Staphylococcus aureus, read-out: Oritavancin BMD MIC
Text: as §4

MRSA U206056 = test: Broth microdilution (BMD) MIC; settings: Staphylococcus aureus, read-out: Oritavancin BMD MIC
Text: as §4

MRSA U784439 = test: Broth microdilution (BMD) MIC; settings: Staphylococcus aureus, read-out: Oritavancin BMD MIC
Text: as §4

MSSA S815247 = test: Broth microdilution (BMD) MIC; settings: Staphylococcus aureus, read-out: Oritavancin BMD MIC
Text: as §4

MRSA Q670607 = test: Broth microdilution (BMD) MIC; settings: Staphylococcus aureus, read-out: Oritavancin BMD MIC
Text: as §4

VISA NRS3 = test: Broth microdilution (BMD) MIC; settings: Staphylococcus aureus, read-out: Oritavancin BMD MIC
Text: as §4

MRSA V257345 = test: Broth microdilution (BMD) MIC; settings: Staphylococcus aureus, read-out: Oritavancin BMD MIC
Text: as §4

MSSA T811355 = test: Broth microdilution (BMD) MIC; settings: Staphylococcus aureus, read-out: Oritavancin BMD MIC
Text: as §4

MSSA T972018 [3] = test: Broth microdilution (BMD) MIC; settings: Staphylococcus aureus, read-out: Oritavancin BMD MIC
Text: as §4

VISA NRS402 = test: Broth microdilution (BMD) MIC; settings: Staphylococcus aureus, read-out: Oritavancin BMD MIC
Text: as §4

MSSA U781969 = test: Broth microdilution (BMD) MIC; settings: Staphylococcus aureus, read-out: Oritavancin BMD MIC
Text: as §4

hVISA NRS36 = test: Broth microdilution (BMD) MIC; settings: Staphylococcus aureus, read-out: Oritavancin BMD MIC
Text: as §4

MRSA Q670505 = test: Broth microdilution (BMD) MIC; settings: Staphylococcus aureus, read-out: Oritavancin BMD MIC
Text: as §4

MRSA U260847 = test: Broth microdilution (BMD) MIC; settings: Staphylococcus aureus, read-out: Oritavancin BMD MIC
Text: as §4

MSSA T759545 = test: Broth microdilution (BMD) MIC; settings: Staphylococcus aureus, read-out: Oritavancin BMD MIC
Text: as §4

MRSA NRS123 = test: Broth microdilution (BMD) MIC; settings: Staphylococcus aureus, read-out: Oritavancin BMD MIC
Text: as §4

MRSA NRS121 = test: Broth microdilution (BMD) MIC; settings: Staphylococcus aureus, read-out: Oritavancin BMD MIC
Text: as §4

MRSA V288615 = test: Broth microdilution (BMD) MIC; settings: Staphylococcus aureus, read-out: Oritavancin BMD MIC
Text: as §4

MSSA S815246 = test: Broth microdilution (BMD) MIC; settings: Staphylococcus aureus, read-out: Oritavancin BMD MIC
Text: as §4

MRSA T998608 = test: Broth microdilution (BMD) MIC; settings: Staphylococcus aureus, read-out: Oritavancin BMD MIC
Text: as §4

MSSA U933236 = test: Broth microdilution (BMD) MIC; settings: Staphylococcus aureus, read-out: Oritavancin BMD MIC
Text: as §4

MRSA NRS121-ORI^RS [4] = test: Broth microdilution (BMD) MIC; settings: Staphylococcus aureus; MRSA NRS121-ORI^RS (oritavancin reduced-susceptibility isolate)
Text: as §4

[5] = 360 μg in 5% P80, Experiment 2, disks stored 8 days, 3 h prediffusion at room temperature
[6] = 192 h, 360 μg in 5% P80, Experiment 2, disks stored 8 days, no prediffusion

Compound: CN[C@H](CC(C)C)C(=O)N[C@H]1C(=O)N[C@@H](CC(N)=O)C(=O)N[C@H]2C(=O)N[C@H]3C(=O)N[C@H](C(=O)N[C@H](C(=O)O)c4cc(O)cc(O)c4-c4cc3ccc4O)[C@H](O[C@H]3C[C@](C)(N)[C@@H](O)[C@H](C)O3)c3ccc(c(Cl)c3)Oc3cc2cc(c3O[C@@H]2O[C@H](CO)[C@@H](O)[C@H](O)[C@H]2O[C@H]2C[C@](C)(NCc3ccc(-c4ccc(Cl)cc4)cc3)[C@@H](O)[C@H](C)O2)Oc2ccc(cc2Cl)[C@H]1O [oritavancin, N-(4-(4-chlorophenyl)benzyl)A82846B]
- zone of inhibition at 360 µg/disc (MSSA T972018 [1]; 360 μg in 5% P80, Average of experiments, no prediffusion): 15 ± 0.6 mm
- zone of inhibition at 360 µg/disc (MSSA T972018 [1]; 360 μg in 5% P80, Average of experiments, prediffusion): 17.4 ± 0.3 mm
- zone of inhibition at 360 µg/disc (MSSA T972018 [1]; 360 μg in 5% P80, Experiment 1, disks stored 14 days, 3 h prediffusion at room temperature): 17.5 mm
- zone of inhibition at 360 µg/disc (MSSA T972018 [1]; [5]): 17.3 ± 0.4 mm
- zone of inhibition at 360 µg/disc (MSSA T972018 [1]; [6]): 14.5 mm
- zone of inhibition at 360 µg/disc (MSSA T972018 [1]; 336 h, 360 μg in 5% P80, Experiment 1, disks stored 14 days, no prediffusion): 15.5 mm
- zone of inhibition at 360 µg/disc (MRSA NRS121-ORI^RS [2]; 360 μg in 5% P80, Average, no prediffusion): 13 mm
- zone of inhibition at 360 µg/disc (MRSA NRS121-ORI^RS [2]; 360 μg in 5% P80, Average, prediffusion): 14 mm
- zone of inhibition at 360 µg/disc (MRSA NRS121-ORI^RS [2]; [5]): 14 mm
- zone of inhibition at 360 µg/disc (MRSA NRS121-ORI^RS [2]; [6]): 13 mm
- MIC (MSSA U148267): 0.015 µg/mL (≈ 0.00837 µM)
- MIC (MRSA NRS123-ORI^RS): 0.25 µg/mL (≈ 0.139 µM)
- MIC (MRSA Q141067): 0.015 µg/mL (≈ 0.00837 µM)
- MIC (MSSA Q141066): 0.03 µg/mL (≈ 0.0167 µM)
- MIC (hVISA NRS2): 0.25 µg/mL (≈ 0.139 µM)
- MIC (MRSA ATCC 33591): 0.06 µg/mL (≈ 0.0335 µM)
- MIC (MRSA V406957): 0.12 µg/mL (≈ 0.0669 µM)
- MIC (MSSA ATCC 29213): 0.06 µg/mL (≈ 0.0335 µM)
- MIC (MRSA U206056): 0.25 µg/mL (≈ 0.139 µM)
- MIC (MRSA U784439): 0.03 µg/mL (≈ 0.0167 µM)
- MIC (MSSA S815247): 0.015 µg/mL (≈ 0.00837 µM)
- MIC (MRSA Q670607): 0.03 µg/mL (≈ 0.0167 µM)
- MIC (VISA NRS3): 1 µg/mL (≈ 0.558 µM)
- MIC (MRSA V257345): 0.12 µg/mL (≈ 0.0669 µM)
- MIC (MSSA T811355): 0.03 µg/mL (≈ 0.0167 µM)
- MIC (MSSA T972018 [3]): 0.5 µg/mL (≈ 0.279 µM)
- MIC (VISA NRS402): 1 µg/mL (≈ 0.558 µM)
- MIC (MSSA U781969): 0.03 µg/mL (≈ 0.0167 µM)
- MIC (hVISA NRS36): 1 µg/mL (≈ 0.558 µM)
- MIC (MRSA Q670505): 0.25 µg/mL (≈ 0.139 µM)
- MIC (MRSA U260847): 0.06 µg/mL (≈ 0.0335 µM)
- MIC (MSSA T759545): 0.015 µg/mL (≈ 0.00837 µM)
- MIC (MRSA NRS123): 0.03 µg/mL (≈ 0.0167 µM)
- MIC (MRSA NRS121): 0.06 µg/mL (≈ 0.0335 µM)
- MIC (MRSA V288615): 0.03 µg/mL (≈ 0.0167 µM)
- MIC (MSSA S815246): 0.03 µg/mL (≈ 0.0167 µM)
- MIC (MRSA T998608): 0.03 µg/mL (≈ 0.0167 µM)
- MIC (MSSA U933236): 0.06 µg/mL (≈ 0.0335 µM)
- MIC (MRSA NRS121-ORI^RS [4]): 0.5 µg/mL (≈ 0.279 µM)
